The values below come from patent US10597398B2, “Suppression and regeneration promoting effect of low molecular weight compound on cancer and fibrosis” (NATIONAL UNIVERSITY CORPORATION TOTTORI UNIVERSITY, priority 2015, dated 2020).

For this experiment, the system named is liver fibrosis. In words: Carbon tetrachloride-induced fibrosis model mouse (Sirius Red staining). The format is in vivo, C57BL/6 male mice. The settings on record: carbon tetrachloride 8 weeks, drug for last 4 weeks, IC-2 10.6 mg/kg i.p. 3 times a week, vs vehicle group. The procedure: To induce anesthesia, 1-mL disposable syringe with a 27-G needle was used to intraperitoneally inject, into a mouse, 1 μL/g body weight of a systemic anesthetic somnopentyl (Kyoritsuseiyaku Corporation, Tokyo).
The liver tissue sample, as so resected, was fixed in 4% paraformaldehyde (Nacalai tesque, Kyoto) at room temperature for 16 h, embedded in paraffin, and sectioned with a microtome to prepare tissue sections, which were then stained by using a Picosirius Red Stain Kit (Polysciences Inc., Warrington, Pa.) in accordance with the attached protocol. After that, a BZ-9000 (KEYENCE CORPORATION, Osaka) was used to take 10 photographs of light-field enlarged images (100×) per tissue sample. The ratio of the red-stained fiber area to the total tissue area of each photographed image was quantified to calculate a fibrosis-positive area ratio.
Seven-week-old C57BL/6 male mice (Japan SLC, Inc., Shizuoka) were subjected to 1-week preparatory rearing and healthy ones were then used. The mice were housed in animal cages at a room temperature of 22±1° C. and a humidity of 50±5% throughout the preparatory rearing and experimental period and were given ad libitum access to food and water.
A microsyringe (ITO CORPORATION, Shizuoka) was used to intraperitoneally administer 0.2 ml/kg of carbon tetrachloride (CCl4; Wako Pure Chemical Industries, Ltd.) 3 times a week for 4, 6, or 8 weeks. […]

In the case of `O=C1C(Cc2ccccc2)N2C(=O)CCN(C(=O)NCc3ccccc3)C2CN1Cc1cccc2ccccc12` (stereo not shown) [IC-2], the “fibrosis area (Sirius Red staining)” value is “decrease more than that of the vehicle group”.
